{"source": "patent US4505897A", "about": "“Cyclic pentapeptides displaying somatostatin antagonism and method of treatment of mammals therewith” (The Administrators of the Tulane Educational Fund, priority 1983, dated 1985)", "key": {"somatostatin": {"system": "somatostatin", "assay": "Somatostatin antagonist activity (blocking of exogenous somatostatin effects)", "assay_type": "in vivo, rats", "conditions": "result in words"}, "plasma GH levels": {"system": "plasma GH levels", "assay": "Peptide effects on NEMBUTAL-stimulated GH levels in anesthetized rats (sc bolus, jugular blood, RIA)", "assay_type": "in vivo, rat", "description": "(§1) In this evaluation, the procedures described by W. A. Murphy et al., Endocrinology, 109:491-495 (1980), were employed.\nIn growth hormone (GH) experiments, male rats (Charles Rivers) were anesthetized with NEMBUTAL® (5 mg per 100 g/BW) which also served to maintain stimulated plasma GH levels. Exactly 30 minutes after the rats were anesthetized, 0.5 ml of saline or the test peptide in saline was administered as a sc bolus. A 1 ml blood sample was drawn from the jugular vein 15 minutes after the injection. For examining blocking effects of the analog on somatostatin, the cyclic peptide was given five minutes prior to somatostatin. GH levels were determined using NIADDKD rat GH RIA components."}, "insulin release": {"system": "insulin release", "assay": "Basal hepatic portal insulin levels in fasted rats", "assay_type": "in vivo, rat", "conditions": "after treatment, result in words", "description": "as §1"}, "glucagon release": {"system": "glucagon release", "assay": "Basal hepatic portal glucagon levels in fasted rats", "assay_type": "in vivo, rat", "conditions": "after treatment, result in words", "description": "as §1"}}, "note": "Non-standard residues stand in square brackets, D forms with d. Residues, ends and D or L forms follow the SMILES beside them. *: point of attachment. Bn = c1ccc(C*)cc1"}
{"smiles": "C[C@@H](O)[C@@H]1NC(=O)[C@H](CCCCN)NC(=O)[C@@H](Cc2c[nH]c3ccccc23)NC(=O)[C@H](Cc2ccccc2)NC(=O)[C@@H]2CCCN2C1=O", "note": "[Cyclo(Pro--Phe--D-Trp--Lys--Thr), cyclo(L-prolyl-L-phenylalanyl-D-tryptophyl-L-lysyl-L-threonyl)] (cyclo(F[dW]KTP))", "values": [{"measurement": "somatostatin antagonist activity", "setting": "somatostatin", "result": "has somatostatin antagonist activity"}, {"measurement": "GH (ng/ml)", "setting": "plasma GH levels; first experiment, dose 2 μg/100 g body weight sc, saline 389 ± 60", "result": "730 + 110 ng/ml"}, {"measurement": "GH", "setting": "plasma GH levels; first experiment, dose 10 μg/100 g body weight sc, saline 389 ± 60", "result": "459 ± 100", "unit": "ng/mL"}, {"measurement": "GH", "setting": "plasma GH levels; second experiment, dose 0.3 μg/100 g body weight sc, saline 648 ± 177", "result": "1265 ± 318", "unit": "ng/mL"}, {"measurement": "GH", "setting": "plasma GH levels; second experiment, dose 0.3 μg/100 g body weight sc, saline 648 ± 177, listed as cyclo(Pro-Phe-D-Trp-Lys-Thr)", "result": "1265 ± 318", "unit": "ng/mL"}, {"measurement": "GH", "setting": "plasma GH levels; second experiment, dose 0.6 μg/100 g body weight sc, saline 648 ± 177", "result": "1072 ± 187", "unit": "ng/mL"}, {"measurement": "GH", "setting": "plasma GH levels; second experiment, dose 1.2 μg/100 g body weight sc, saline 648 ± 177", "result": "728 ± 143", "unit": "ng/mL"}]}
{"smiles": "C[C@H](N)C(=O)NCC(=O)N[C@H]1CSSC[C@@H](C(=O)O)NC(=O)[C@H](CO)NC(=O)[C@H]([C@@H](C)O)NC(=O)[C@H](Cc2ccccc2)NC(=O)[C@H]([C@@H](C)O)NC(=O)[C@H](CCCCN)NC(=O)[C@H](Cc2c[nH]c3ccccc23)NC(=O)[C@H](Cc2ccccc2)NC(=O)[C@H](Cc2ccccc2)NC(=O)[C@H](CC(N)=O)NC(=O)[C@H](CCCCN)NC1=O", "note": "[Somatostatin, somatostatin]", "values": [{"measurement": "GH", "setting": "plasma GH levels; first experiment, dose 0.4 μg/100 g body weight sc, blood 15 min after injection, saline 389 ± 60", "result": "152 ± 51", "unit": "ng/mL"}, {"measurement": "GH", "setting": "plasma GH levels; third experiment, dose 0.5 μg/100 g body weight sc, saline 497 ± 80", "result": "173 ± 46", "unit": "ng/mL"}]}
{"smiles": "C[C@@H](OCc1ccccc1)[C@@H]1NC(=O)[C@H](CCCCN)NC(=O)[C@@H](Cc2c[nH]c3ccccc23)NC(=O)[C@H](Cc2ccccc2)NC(=O)[C@@H]2CCCN2C1=O", "note": "[Cyclo[Pro--Phe--D-Trp--Lys--Thr(Bzl)], cyclo(L-prolyl-L-phenylalanyl-D-tryptophyl-L-lysyl-O-benzyl-L-threonyl)] (cyclo(F[dW]KT(Bn)P))", "values": [{"measurement": "somatostatin antagonist activity", "setting": "somatostatin", "result": "very effective somatostatin antagonist"}, {"measurement": "plasma growth hormone levels", "setting": "plasma GH levels; NEMBUTAL-anesthetized and stimulated rats, after injection, result in words", "result": "increased"}, {"measurement": "GH", "setting": "plasma GH levels; third experiment, dose 0.2 μg/100 g body weight sc, saline 497 ± 80", "result": "1724 ± 393", "unit": "ng/mL"}, {"measurement": "GH", "setting": "plasma GH levels; third experiment, dose 0.2 μg/100 g body weight sc, saline 497 ± 80, listed as cyclo[Pro-Phe-D-Trp-Lys-Thr(Bzl)]", "result": "1724 ± 383", "unit": "ng/mL"}, {"measurement": "GH", "setting": "plasma GH levels; third experiment, dose 0.6 μg/100 g body weight sc, saline 497 ± 80", "result": "812 ± 163", "unit": "ng/mL"}, {"measurement": "basal hepatic portal insulin levels", "setting": "insulin release", "result": "significantly increased"}, {"measurement": "basal hepatic portal glucagon levels", "setting": "glucagon release", "result": "significantly increased"}]}
